Test systems include A498 renal; CAKI-1 renal; CCRF-CEM leukemia; COLO 205 colon; DU-145 prostate; HOP-62 NSCLC; OVCAR-8 ovarian; RPMI-8226 leukemia; RXF 393 renal; SR leukemia.
Assay in all cases: DTP human tumour cell line panel, 48 h

Each structure is given as a SMILES string. Where “and” joins values, the source holds several entries; their conditions need not be identical. Equal entries are not always repeated.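 1) Cells in 96-well plates. 2) Compound, 48 h, 5 concentrations. 3) Linear interpolation between surrounding doses. 4) Unreached endpoint = highest concentration. At the GI50, growth is halved. TGI is the concentration that stops growth completely.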

On to `C=C1C(=O)O[C@H]2[C@H]1CC/C(COC(=O)/C=C\C(=O)NCc1ccc(Cn3c(=O)sn(-c4ccc(OC)cc4)c3=O)cc1)=C\CC[C@@]1(C)O[C@@H]21`, for which the GI50 (in general, the concentration that inhibits growth by half) is 799 nM with A498 renal; 291 nM in the assay on CAKI-1 renal; 174 nM with CCRF-CEM leukemia; 633 nM with COLO 205 colon; 694 nM with DU-145 prostate; 2760 nM in the assay on HOP-62 NSCLC. The GI50 in the assay on OVCAR-8 ovarian was 755 nM; with RPMI-8226 leukemia, 313 nM; in the assay with RXF 393 renal, 510 nM; with SR leukemia it was 322 nM. The TGI – broadly, the concentration giving total growth inhibition – in the assay with A498 renal worked out at 1570 nM; with CAKI-1 renal, 997 nM; in the assay on CCRF-CEM leukemia, 4270 nM; in the assay with COLO 205 colon, 2020 nM; with DU-145 prostate, 1360 nM; in the assay with HOP-62 NSCLC, 10000 nM. In addition, the TGI came out at 2620 nM with OVCAR-8 ovarian, 2430 nM in the assay on RPMI-8226 leukemia, 1170 nM in the assay on RXF 393 renal and 11800 nM in the assay with SR leukemia.

Turning to `COc1ccc2nc3cccc([N+](=O)[O-])c3c(NCCN(CCO)CCO)c2c1`, the concentration for 50% growth inhibition (GI50) was 22 nM in the assay on A498 renal; 38.2 nM in the assay with CAKI-1 renal; 32.6 nM in the assay on CCRF-CEM leukemia; 11.8 nM with COLO 205 colon; 14 nM with DU-145 prostate; 30.4 nM in the assay with HOP-62 NSCLC. The GI50 in the assay with OVCAR-8 ovarian was 14 nM; in the assay with RPMI-8226 leukemia, 15.5 nM; in the assay on RXF 393 renal it was 15.5 nM; in the assay on SR leukemia, 17 nM. Further, the concentration for total growth inhibition (TGI) in the assay with A498 renal is 52.4 nM; with CAKI-1 renal, 330 nM; in the assay on CCRF-CEM leukemia it was 247 nM; with COLO 205 colon, 31 nM; with DU-145 prostate, 717 nM; in the assay on HOP-62 NSCLC, 153 nM. In addition, the TGI with OVCAR-8 ovarian came to 138 nM; in the assay with RPMI-8226 leukemia, 102 nM; with RXF 393 renal, 32 nM; with SR leukemia, 647 nM.

Consider `CS(=O)(=O)N1CCN(Cc2cc3nc(-c4cccc5[nH]ncc45)nc(N4CCOCC4)c3s2)CC1`, for which the GI50 is 61.8 nM and 58.1 nM with A498 renal; 419 nM and 209 nM in the assay on CAKI-1 renal; 2300 nM and 909 nM with CCRF-CEM leukemia; 499 nM and 163 nM with COLO 205 colon; 610 nM and 427 nM in the assay on DU-145 prostate; 655 nM and 573 nM in the assay with HOP-62 NSCLC. For the same compound, the GI50 in the assay with OVCAR-8 ovarian is 789 nM and 594 nM; in the assay on RPMI-8226 leukemia, 2000 nM and 1940 nM; in the assay on RXF 393 renal, 209 nM and 165 nM; with SR leukemia, 2460 nM and 2020 nM. Further, the total growth inhibition concentration (TGI) was 433 nM and 389 nM in the assay with A498 renal; 3920 nM and > 3950 nM in the assay with CAKI-1 renal; above 100000 nM in the assay with CCRF-CEM leukemia; above 100000 nM in the assay with COLO 205 colon; above 100000 nM with DU-145 prostate; above 100000 nM with HOP-62 NSCLC. For the same compound, the TGI in the assay on OVCAR-8 ovarian was above 100000 nM; in the assay with RPMI-8226 leukemia, above 22200 nM; in the assay with RXF 393 renal it was 1540 nM and 1030 nM; with SR leukemia it was above 100000 nM.

Consider `CCOC(=O)c1c[nH]c2c(OCc3ccccc3)c3ccccc3c(O)c2c1=O`, for which the GI50 in the assay on A498 renal is 27300 nM; in the assay with CAKI-1 renal, 4370 nM; in the assay on CCRF-CEM leukemia, 5730 nM; with COLO 205 colon, 47000 nM; in the assay with DU-145 prostate it was 12100 nM; with HOP-62 NSCLC, 14400 nM. Besides, the GI50 was 5600 nM in the assay on OVCAR-8 ovarian, 26900 nM in the assay on RPMI-8226 leukemia, 22600 nM in the assay with RXF 393 renal and 21300 nM with SR leukemia. The TGI with A498 renal is above 78100 nM; in the assay on CAKI-1 renal, 21100 nM; in the assay on CCRF-CEM leukemia, above 100000 nM; with COLO 205 colon, above 100000 nM; with DU-145 prostate it was above 74200 nM; in the assay with HOP-62 NSCLC, 42900 nM. The TGI in the assay with OVCAR-8 ovarian was 41300 nM; in the assay on RPMI-8226 leukemia, above 100000 nM; in the assay on RXF 393 renal, 55700 nM; in the assay with SR leukemia, above 100000 nM.

Regarding `CN(C)c1ccc(/C=C(\C#N)c2cc3ccccc3n2C)cc1`, the GI50 with A498 renal was 41.2 nM; with CAKI-1 renal, 85.6 nM; in the assay on CCRF-CEM leukemia it was 244 nM; with COLO 205 colon, 258 nM; in the assay on DU-145 prostate it was 505 nM; with HOP-62 NSCLC it was 296 nM. For the same compound, the GI50 in the assay with OVCAR-8 ovarian was 405 nM; with RPMI-8226 leukemia it was 351 nM; in the assay with RXF 393 renal, 133 nM; with SR leukemia it was 39.6 nM. The TGI in the assay on A498 renal is 604 nM; with CAKI-1 renal, above 100000 nM; with CCRF-CEM leukemia it was above 100000 nM; in the assay on COLO 205 colon, 1720 nM; in the assay with DU-145 prostate, above 100000 nM; in the assay with HOP-62 NSCLC it was above 100000 nM. Also, the concentration for total growth inhibition (TGI) was above 100000 nM with OVCAR-8 ovarian, above 100000 nM with RPMI-8226 leukemia and 549 nM with RXF 393 renal.

Regarding `CCCCCCCCCCCC1=NC(C)(C)CN1CCO`, the GI50 in the assay on A498 renal is 15600 nM; in the assay on CAKI-1 renal, 4570 nM; in the assay with CCRF-CEM leukemia, 3540 nM; in the assay with COLO 205 colon it was 1850 nM; in the assay with DU-145 prostate, 10200 nM; in the assay on HOP-62 NSCLC it was 4600 nM. The GI50 in the assay on OVCAR-8 ovarian is 10700 nM; with RPMI-8226 leukemia it was 2300 nM; in the assay with RXF 393 renal, 3940 nM; with SR leukemia, 2380 nM. The TGI is 31800 nM in the assay on A498 renal; 18900 nM in the assay with CAKI-1 renal; 18400 nM with CCRF-CEM leukemia; 3450 nM in the assay with COLO 205 colon; 21900 nM in the assay on DU-145 prostate; 16200 nM in the assay on HOP-62 NSCLC. Besides, the total growth inhibition concentration (TGI) with OVCAR-8 ovarian amounted to 29900 nM; with RPMI-8226 leukemia it was 7460 nM; in the assay on RXF 393 renal it was 10500 nM; in the assay on SR leukemia it was 5790 nM.

In the case of `O=C1Nc2ccccc2C1(c1ccc(O)c(F)c1)c1ccc(O)c(F)c1`, the GI50 in the assay with A498 renal is 11100 nM; in the assay with CAKI-1 renal it was 17600 nM; in the assay with CCRF-CEM leukemia, 17800 nM; with COLO 205 colon, 297 nM; in the assay on DU-145 prostate, 11900 nM; in the assay on HOP-62 NSCLC, 16900 nM. In addition, the GI50 is 333 nM in the assay on OVCAR-8 ovarian, 15700 nM with RPMI-8226 leukemia, 969 nM in the assay on RXF 393 renal and 3830 nM in the assay on SR leukemia. Also, the TGI in the assay on A498 renal worked out at 27400 nM; in the assay on CAKI-1 renal, 55400 nM; with CCRF-CEM leukemia, 73300 nM; in the assay with COLO 205 colon it was 1980 nM; with DU-145 prostate it was 42700 nM; in the assay on HOP-62 NSCLC, 44500 nM. For the same compound, the TGI in the assay on OVCAR-8 ovarian is 3490 nM; in the assay with RPMI-8226 leukemia, 52600 nM; with RXF 393 renal it was 10500 nM; in the assay on SR leukemia, above 52300 nM.

`CSC(=S)N/N=C/c1ccccc1`: the TGI is above 100000 nM with A498 renal; 89400 nM with CAKI-1 renal; above 100000 nM in the assay with CCRF-CEM leukemia; above 100000 nM with COLO 205 colon; above 100000 nM in the assay on DU-145 prostate; above 100000 nM in the assay on HOP-62 NSCLC. The TGI is above 100000 nM in the assay with OVCAR-8 ovarian, above 100000 nM in the assay on RPMI-8226 leukemia, 76900 nM in the assay with RXF 393 renal and above 100000 nM in the assay with SR leukemia.

For the origin of these results see PubChem BioAssay (NCI).
